Assay results as given in patent US20090054529A1, “Flow Path Conditioner System” (priority 2005, published 2009).

Test system: E coli (ATCC 25922, MRI EC 13) and Pseudomonas aeruginosa (ATCC 9027, MRI Ps 10)
Test: Example 4 summary of the 62 test samples (both cultures pooled)
Format: cell-based
Conditions: aqueous mixtures of up to 20% v/v; Example 4 text summary
Procedure: Freshly cultivated cultures of E coli (ATCC 25922, MRI EC 13) and Pseudomonas aeruginosa (ATCC 9027, MRI Ps 10) were suspended in MHB (Mueller-Hinton Broth) nutrient broth at 10^8 cfu/ml (colony-forming units per milliliter), diluted about 1:10 in peptone nutrient broth to about 10^7 cfu/ml. About 1 ml of each of the diluted cultures was added to one each of 9 ml of the corresponding test solutions described below for 5.0 minutes and then diluted in two steps of 1:10 per step. 100 microliters of such diluted culture was then plated onto a conventional nutrient agar plate. Nutrient agar plates were incubated by conventional methods and the number of colonies present on each plate were counted. Positive controls combined freshly cultivated cultures above described with peptone broth were included in each test group and numbers of colonies in control plates were used as a reference.
Now referring to Table 4, the results of combining each test solution as described above with each of the E coli (ATCC 25922, MRI EC 13) and Pseudomonas aeruginosa (ATCC 9027, MRI Ps 10) cultures are summarized using the following quantitative nomenclature: […]

CO [methanol]
effectiveness in reducing microorganisms: do not appear to be effective

CCO [ethanol]
effectiveness in reducing microorganisms: do not appear to be effective
